Reference: patent US20130123201A1, “MODULATION OF CYTOKINE-INDUCED CHRONIC INFLAMMATORY RESPONSES” (UNIVERSITY OF MANITOBA, priority 2010, published 2013)

Legend:
Type in all cases: cell-based
[1] = test system: human monocytic THP-1 cells; test: Cellular cytotoxicity by LDH release
Procedure: Human monocytic THP-1 (ATCC® TIB-202; ATCC is a registered trademark of the American Type Culture Collection, Manassas, Va., USA) cells were cultured in RPMI-1640 media containing 2 mM L-glutamine and 1 mM sodium pyruvate (referred to as complete RPMI media from here on), supplemented with 10% (v/v) FBS, and maintained in a humidified incubator at 37° C. and 5% CO2. […] Cellular cytotoxicity was evaluated after 24 hr stimulation with the various stimulants used in this study by monitoring the release of lactate dehydrogenase (LDH) employing a colorimetric detection kit (Roche Diagnostics, Laval, QC, Canada) Human monocytic THP-1 (ATCC® TIB-202) cells and Jurkat T-cell line (ATCC® TIB-152) were cultured in RPMI-1640 media containing 2 mM L-glutamine and 1 mM sodium pyruvate, supplemented with 10% (v/v) FBS, and maintained in a humidified incubator at 37° C. and 5% CO2. […] Cellular cytotoxicity was evaluated after AHA labeling and upon stimulation with the various cytokines for all the cell types used in this study by monitoring the release of lactate dehydrogenase (LDH) employing a colorimetric detection kit (Roche Diagnostics, Laval, QC, Canada).

[2] = test system: rabbit synovial fibroblast HIG-82 cell line; test: Cellular cytotoxicity by LDH release; conditions: HIG-82 synovial fibroblast cell line, within 4 hr
Procedure: (§1) Where indicated the THP-1 cells were differentiated to plastic-adherent macrophage-like cells by treatment with phorbol 12-myristate 13-acetate (PMA; Sigma-Aldrich Canada, Oakville ON) as taught by Mookherjee et al. (2006). A rabbit synoviocyte cell line HIG-82 (ATCC® CRL-1832) was cultured in Ham's F-12 growth medium containing glutamine supplemented with sodium pyruvate (referred to as complete F-12 media henceforth), containing 10% (v/v) FBS in a humidified incubator at 37° C. and 5% CO2. Confluent HIG-82 cells were trypsinized with 1:3 dilution of 0.5% trypsin-EDTA in Hanks' balanced salt solution. Cellular cytotoxicity was evaluated after AHA labeling and upon stimulation with the various cytokines for all the cell types used in this study by monitoring the release of lactate dehydrogenase (LDH) employing a colorimetric detection kit (Roche Diagnostics, Laval, QC, Canada). Recombinant human cytokines TNF-α and IL-1β were obtained from eBioscience, Inc (San Diego, Calif., USA).

[3] = test system: human T-cell Jurkat cell line; test: Cellular cytotoxicity by LDH release; conditions: human T-cell Jurkat cells
Procedure: as §1

[4] = test system: AHA-labeled human monocytic THP-1 cells; test: ELISA of IL-8 production by AHA-labeled THP-1 cells; conditions: 10 ng/ml, 4 hr
Procedure: AHA labeling, biotin tagging of nascent proteins, and affinity purification: Cells were washed with warm D-PBS, and cultured in methionine-free, serum-free RPMI media at 37° C. 5% CO2 for 60 min. […] TC supernatants were monitored for the production of IL-8 by ELISA. Metabolic labeling of the cells with AHA reagent in the presence of the cytokine stimulants would result in induced nascent proteins with azide-bearing functional group, thus making them distinct from pool of pre-existing cellular proteins. Also these functional groups were further used to tag the nascent proteins with a biotin-alkyne reagent as follows. The cells were washed with D-PBS, followed by preparing cell lysates in lysis buffer containing 50 mM Tris-HCl, 1% SDS, 250 U/ml of benzonase nuclease and protease and phosphatase inhibitor cocktails (Sigma-Aldrich Canada Inc.). Total protein was estimated in the cell lysates using micro BCA analysis. Equivalent amount of total protein from each sample was acetone precipitated and then treated with Click-iT® Biotin-alkyne reagent (Invitrogen Canada Inc.) per the manufacturer's instructions. […]

[5] = test system: human monocytic THP-1 cells; test: AHA labeling, affinity purification and iTRAQ quantitative proteomics of nascent proteins; conditions: AHA-labeled THP-1 cells, cytokine 10 ng/ml, 4 hr, vs un-stimulated cells
Procedure: AHA labeling, biotin tagging of nascent proteins, and affinity purification: Cells were washed with warm D-PBS, and cultured in methionine-free, serum-free RPMI media at 37° C. 5% CO2 for 60 min. […] TC supernatants were monitored for the production of IL-8 by ELISA. Metabolic labeling of the cells with AHA reagent in the presence of the cytokine stimulants would result in induced nascent proteins with azide-bearing functional group, thus making them distinct from pool of pre-existing cellular proteins. Also these functional groups were further used to tag the nascent proteins with a biotin-alkyne reagent as follows. The cells were washed with D-PBS, followed by preparing cell lysates in lysis buffer containing 50 mM Tris-HCl, 1% SDS, 250 U/ml of benzonase nuclease and protease and phosphatase inhibitor cocktails (Sigma-Aldrich Canada Inc.). Total protein was estimated in the cell lysates using micro BCA analysis. Equivalent amount of total protein from each sample was acetone precipitated and then treated with Click-iT® Biotin-alkyne reagent (Invitrogen Canada Inc.) per the manufacturer's instructions. The biotin-alkyne reagent thus covalently coupled to the reactive azide group of the AHA-modified proteins was used to subsequently enrich the nascent proteins by affinity purification using Ultralink® Immobilized NeutrAvidin® resin (Ultralink and NeutrAvidin are registered trademarks of Pierce Biotechnology Inc, Rockford, Ill., USA), and the bound proteins were eluted using 6 M guanidinium hydrochloride.
Quantitative proteomics employing isobaric tag for relative and absolute quantitation (iTRAQ): Amine-modifying iTRAQ™ reagents multiplex kit (Applied Biosystems, Foster City, Calif., USA) was employed for relative quantitation of purified nascent proteins. Affinity purified eluates were acetone precipitated at −20° C. overnight. Proteins were dissolved in 20 μl of iTRAQ dissolution buffer (Applied Biosystems) and further processed as per the manufacturer's instructions. Briefly, proteins were reduced and the cysteines blocked using the reagents in kit, followed by digestion of the protein samples with provided trypsin solution overnight at 37° C. […] The contents from each of the iTRAQ reagent-labeled sample was combined together and processed for nanoflow liquid chromatography coupled to tandem mass spectrometry (LC-MS/MS).
The AHA-containing nascent proteins enriched by affinity purification were quantitated using isobaric iTRAQ quantitative proteomics reagents. This was done to identify and estimative the relative abundance of nascent proteins enriched in the cytokine-treated samples compared to un-stimulated cells. […] Samples from four independent experiments were individually examined by LC-MS/MS. Peptides identified with 95% confidence were selected for further analysis. The mass spectrometry data was analyzed using Global Proteome Machine (GPM-http://www.thegpm.org/).

[6] = test system: Human THP-1 monocytic cells; test: qRT-PCR kinetics of cytokine-induced gene expression of identified candidates
Excerpt: Quantitative real-time PCR (qRT-PCR): RNA was isolated using the Qiagen RNeasy® kit as per the manufacturer's instructions (Rneasy is a registered trademark of Qiagen GmbH, Hilden, Fed. Rep. Germany). Gene expression was subsequently analyzed by qRT-PCR using SuperScript® III Platinum Two-Step qRT-PCR Kit with SYBR Green (SuperScript is a registered trademark of Invitrogen Corp., Carlsbad, Calif., USA), according to the manufacturer's instructions, in the ABI PRISM® 7300 sequence detection system (BI PRISM is a registered trademark of Applera Corp., Foster City, Calif., USA). Fold changes were calculated by the comparative Ct method as taught by Pfaffl (2001) after normalization with 18sRNA.

[N-]=[N+]=NCC[C@H](N)C(=O)O [AHA, L-azidohomoalanine]
Cytotoxicity of AHA labeling (LDH release) ([1]; human monocytic THP-1 cells): not cytotoxic
Cytotoxicity of AHA labeling (LDH release) [2]: cytotoxic
Cytotoxicity of AHA labeling (LDH release) [3]: not cytotoxic

IL-1β: Recombinant human cytokine IL-1β from eBioscience, used as stimulant
Cytotoxicity of cytokine treatment (LDH release) ([1]; AHA-labeled THP-1 cells, cytokine 10 ng/ml, 4 hr, data not shown): not cytotoxic
IL-8 production upon IL-1β stimulation compared to cells stimulated with TNF-α [4]: more than 2 fold
Production of IL-8 ([4]; p<0.001): significant
Fold Change of nascent protein AIFM1 [5]: 1.2 fold
Fold Change of nascent protein ALDOA [5]: 1.5 fold
Fold Change of nascent protein CALR [5]: 1.0 fold
Fold Change of nascent protein CAP1 [5]: 1.9 fold
Fold Change of nascent protein CTPS [5]: 1.5 fold
Fold Change of nascent protein DDX17 [5]: 2.2 fold
Fold Change of nascent protein EIFA3 [5]: 1.2 fold
Fold Change of nascent protein HMGN1 [5]: 1.5 fold
Fold Change of nascent protein HSPA4 [5]: 1.1 fold
Fold Change of nascent protein LCP1 [5]: 1.5 fold
Fold Change of nascent protein PRTN3 [5]: 0.8 fold
Fold Change of nascent protein PSME2 [5]: 2.3 fold
Fold Change of nascent protein PYGL [5]: 1.7 fold
Fold Change of nascent protein RAB14 [5]: 1.2 fold
Fold Change of nascent protein SEC22B [5]: 1.6 fold
Fold Change of nascent protein VDAC3 [5]: 1.1 fold
Up-regulation of gene expression of PYGL [6]: 1.5 fold
Up-regulation of gene expression of RAB14 and Eifa3 ([6]; p≦0.01): ≥ 1.5 fold
